Key:
POLβ KO A2780cis cells = assay: Clonogenic assay, POLβ KO A2780cis; format: cell-based, human; settings: vs POLβ proficient A2780cis
Method: Clonogenic assay: In the clonogenic assay (colony formation assays), 32 cells/cm2 were seeded in 6-well plates and left at 37°C in a 5% CO2 atmosphere. Cisplatin (5µM) and/or FEN1i (10µM) and/or Importazole (5 µM, Selleckem, S8446 ) were added at the indicated concentrations and the plates were left at 37 °C in a 5% CO 2 atmosphere for 14 days. Later, the plates were washed with PBS, fixed and stained with a crystal violet, acetic acid and methanol solution and colonies were counted. […]

[1] = biological target: T1, Recombinant human FEN1 protein (Homo sapiens, UniProt P39748); assay: fluorescence-based HTS assay for FEN1 inhibitors; format: biochemical; settings: dilution series on each screening plate
T1 construct: made in house
T1 sequence (P39748 whole entry): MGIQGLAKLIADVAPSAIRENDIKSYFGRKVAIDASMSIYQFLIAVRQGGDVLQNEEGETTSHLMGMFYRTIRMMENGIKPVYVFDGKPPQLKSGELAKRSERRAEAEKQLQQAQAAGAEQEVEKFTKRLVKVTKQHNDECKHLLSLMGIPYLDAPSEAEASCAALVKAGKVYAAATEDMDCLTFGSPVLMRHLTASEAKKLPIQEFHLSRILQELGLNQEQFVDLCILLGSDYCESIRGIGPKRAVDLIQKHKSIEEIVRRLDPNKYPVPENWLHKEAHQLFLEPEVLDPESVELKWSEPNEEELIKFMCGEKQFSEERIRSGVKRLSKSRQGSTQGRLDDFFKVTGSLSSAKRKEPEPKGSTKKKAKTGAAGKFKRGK
Method: reactions containing 50 mM Tris pH 8.0, 10 mM MgCl2, 1 mM DTT and 0.01% Tween-20.
Reactions were incubated at 37 °C for 10 min. To inactivate the enzyme, an equal volume of
stop buffer (90% Formamide, 20 mM EDTA) was added and the mixture was heated at 95 °C
for 10 min. Following separation on a 15% polyacrylamide-urea denaturing gel, substrate
and product bands were visualized by a Typhoon Trio+ Variable Model Imager (Amersham
Bioscience/GE Healthcare, Piscataway, NJ), and the signals were quantified using
ImageQuant software (Molecular Dynamics, GE Healthcare).
Development of HTS assay to isolate novel FEN1 inhibitors: To facilitate the search for
novel FEN1 inhibitors, we have developed a fluorogenic donor/quencher reporter pair to
monitor generation of reaction product in real time (28) (Supplementary Figure S4A ).
Recombinant human FEN1 protein was purified from bacteria as described previously (27).
All oligodeoxynucleotides were purchased from Biosearch Technologies, Inc., (Novato, CA,
USA). The double-stranded DNA substrate containing a double flap region used in the […]
BHQ-2 quencher (which absorbs 6-TAMRA fluorescence when in close proximity) is lost,
and FEN1 activity is measured indirectly as an increase in fluorescence signal (Figure 3).
Kinetic fluorescence data were collected on ViewLux high-throughput CCD imager (Perkin […]
by absence of fluorescence. […]

PEO1 cells = assay: γH2AX analysis, PEO1; format: cell-based, human; settings: FEN1i monotherapy
Method: Graphical representation and statistical analysis of mean tail moment was performed in GraphPad Prism 6 (GraphPad, La Jolla, USA). All experiments were done in duplicate three times.
γH2AX FACS: For monitoring DNA double strand break accumulation by γH2AX FACS, 1.05×104 Cells/cm2 were seeded in 6-well plates and left overnight at 37°C in a 5% CO 2 atmosphere. Cisplatin (5µM) or FEN1i (10µM) was later added to cells and incubated for 24h and 48h at 37°C in a 5% CO2 atmosphere. Cells were collected by trypsinization, washed […]
with ice cold PBS and fixed in 70% ethanol for 1h at -20°C. After removal of the fixative solution by centrifugation, cells were stained with 2 µg/ml of phospho-Histone (γH2AX) Ser139 (16202A, Millipore, UK) to detect DSBs.
Cell cycle progression: Cells were treated with 20 µg/ml RNase A (12091021, Invitrogen) and then 10 µg/ml Propidium Iodide (P4170, Sigma Aldrich) was added to determine the cell cycle distribution. The samples were analysed on a Beckman-Coulter FC500 flow cytometer using a 488nm laser for excitation and emission data for PI collected using a 620nm bandpass filter (FL3) and a 525nm bandpass filter (FL1) for FITC-anti-phospho-Histone H2A.X. […]
Graphical representation and statistical analysis was performed in GraphPad Prism 7 (GraphPad, La Jolla, USA). […]

Structure (SMILES): Cc1csc2c1c(=O)n(O)c(=O)n2-c1ccccc1 [PTPD, 3-hydroxy-5-methyl-1-phenylthieno [2,3 d]pyrimidine-2,4(1H,3H)-dione]
- sensitivity to FEN1 inhibitor (POLβ KO A2780cis cells): more sensitive to FEN1 inhibition
- inhibition pattern of control dilution series in the screen [1]: uniform inhibition pattern
- γH2AX foci (PEO1 cells): increased γH2AX foci accumulation

Source: article PMC8070745, “FEN1 Blockade for Platinum Chemo-Sensitization and Synthetic Lethality in Epithelial Ovarian Cancers” (Cancers, 2021)
